Legend:
MH3924A cells = assay: Subcellular distribution; format: cell-based, rat; settings: 100 μM, 24 h, 37° C.
Protocol: Subcellular distribution. 5×10^6 MH3924A cells were grown in 25 cm^2 culture flasks (BD Biosciences, Bedford, USA) for 24 h in 10 mL of the standard culture medium. Cells were then incubated for an additional 24 h with 100 μM Gd-5.1. Afterwards the medium was removed, cells were trypsinated. Then the organelles were isolated with the Subcellular Proteome Extraction Kit ProteoExtract® (Merck, Darmstadt, Germany) according to the instructions of the manufacturer. Four fractions were obtained: Cytosol, membrane organelles (mainly mitochondria), nucleus and cytoskeleton (with associated endosomes and lysosomes). The gadolinium content for each fraction was determined by ICP-MS as described below.
ICP-MS. Samples containing the above mentioned number of harvested cells were digested with 50% concentrated HNO3 (Superselect; Merck, Darmstadt, Germany) under microwave heating with a Mars 5 apparatus (CEM GmbH, Kamp-Lintfort, Germany). To each sample 100 μL of an aqueous solution of rhodium chloride (1 μg/mL) were added so that Rh-103 could be used as an internal quantification standard. Gd-160 measurements were performed with the ICP-MS instrument mentioned above. The gadolinium concentrations were determined using standard curves created prior to cell analyses. For each uptake incubation condition triplicate cell samples were analyzed, and Gd content for each sample was recorded as the mean of two MS determinations.

human melanocytes = assay: Intracellular uptake of gadolinium complexes (ICP-MS); format: cell-based; settings: 24-h incubation (FIG. 2C)
Protocol: Cell culture. B16 melanoma cells (mouse) and MH3924A Morris hepatoma cells (rat) were obtained from the German Cancer Research Center (DKFZ) tumor bank and grown at 37° C. as stock cultures in RPMI 1640 supplemented with 10% fetal calf serum and 1% glutamine as standard medium under a 5% CO2 atmosphere (all components: Pan Biotech GmbH, Aidenbach, Germany). For contrast agent uptake studies 10^6 cells were inoculated into 25 cm^2 culture flasks (BD Biosciences, Bedford, USA) and grown for 24 h in 10 mL of the standard culture medium. […] Afterwards the medium was removed, cells were trypsinated, washed twice, resuspended in culture medium and counted (typical yields: 3.5-6 million cells). […] After digestion the cells were washed twice with PBS, resuspended in culture medium and counted (typical yields: 6×10^5 cells per tube). The intracellular gadolinium content was determined by ICP-MS as described below.
ICP-MS. […] To each sample 100 μL of an aqueous solution of rhodium chloride (1 μg/mL) were added so that Rh-103 could be used as an internal quantification standard. […] The gadolinium concentrations were determined using standard curves created prior to cell analyses. For each uptake incubation condition triplicate cell samples were analyzed, and Gd content for each sample was recorded as the mean of two MS determinations.

| SMILES | subcellular concentration, cytoplasma (MH3924A cells) [fmol/cell] | subcellular concentration, cytoskeleton fraction (MH3924A cells) [fmol/cell] | subcellular concentration, nucleus (MH3924A cells) [fmol/cell] | factor of higher uptake into B16 melanoma versus human melanocytes (human melanocytes) |
| --- | --- | --- | --- | --- |
| NCCN(CCN)C(=O)CN(CCN(CCN(CC(=O)[O-])CC(=O)N(CCN)CCN)CC(=O)[O-])CC(=O)[O-].[Gd+3] [Gd-5.1] | 0.026 | 0.065 | 0.015 | – |
| NCCCCN(CCCN)C(=O)CN(CCN(CCN(CC(=O)[O-])CC(=O)N(CCCN)CCCCN)CC(=O)[O-])CC(=O)[O-].[Gd+3] [Gd-6.1] | – | – | – | ~2 |
